According to ChEMBL document CHEMBL5390322, “Discovery of 5-Azaquinoxaline Derivatives as Potent and Orally Bioavailable Allosteric SHP2 Inhibitors” (ACS Med Chem Lett, 2023):
≈ marks a conversion by molar mass, not a printed value.

Legend:
[1] = target: Mitogen-activated protein kinase; ERK1/ERK2 (Homo sapiens, UniProt P27361+P28482); experiment: Inhibition of ERK1/2 phosphorylation at Thr202/Tyr204 residues in human KYSE520 cells incubated for 1 hrs by Western blot analysis; assay type: cell-based
[2] = target: T1, Tyrosine-protein phosphatase non-receptor type 11 (Homo sapiens, UniProt Q06124); experiment: Allosteric inhibition of recombinant full length 6His-tagged SHP2 (2 to 527 residues) (unknown origin) expressed in Escherichia coli using DiFMUP as substrate incubated for 15 mins by microplate reader analysis
T1 sequence (Q06124 whole entry): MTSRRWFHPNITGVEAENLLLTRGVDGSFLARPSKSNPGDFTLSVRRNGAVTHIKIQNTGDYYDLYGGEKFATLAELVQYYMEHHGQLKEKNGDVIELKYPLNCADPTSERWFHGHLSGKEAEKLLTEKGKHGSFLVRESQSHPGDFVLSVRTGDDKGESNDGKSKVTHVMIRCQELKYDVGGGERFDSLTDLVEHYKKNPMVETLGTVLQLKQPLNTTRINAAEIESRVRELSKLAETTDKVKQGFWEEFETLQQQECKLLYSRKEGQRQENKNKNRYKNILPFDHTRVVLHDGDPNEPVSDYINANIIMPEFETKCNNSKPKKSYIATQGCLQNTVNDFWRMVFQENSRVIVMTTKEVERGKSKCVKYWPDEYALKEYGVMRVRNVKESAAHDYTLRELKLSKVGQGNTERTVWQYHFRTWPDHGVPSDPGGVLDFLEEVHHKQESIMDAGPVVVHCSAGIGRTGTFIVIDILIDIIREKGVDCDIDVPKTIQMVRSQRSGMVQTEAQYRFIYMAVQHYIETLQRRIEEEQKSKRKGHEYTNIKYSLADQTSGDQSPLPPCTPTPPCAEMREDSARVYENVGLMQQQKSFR

[3] = Metabolic stability in mouse hepatocyte assessed as intrinsic clearance incubated for 1 to 2 hrs by LC-MS analysis; assay type: ADME, cell-based; conditions: hepatocytes, time 1-2 hrs, read-out: CLH
[4] = Metabolic stability in human hepatocyte assessed as intrinsic clearance incubated for 1 to 2 hrs by LC-MS analysis; assay type: ADME, cell-based; conditions: hepatocytes, time 1-2 hrs, read-out: CLH
[5] = Permeability of compound from apical to basolateral side in LLC-PK1 cells incubated for 2 hrs by LC-MS/MS analysis; assay type: ADME, cell-based, Sus scrofa; conditions: pig, read-out: permeability
[6] = Metabolic stability in mouse liver microsome assessed as intrinsic clearance at […] preincubated for 5 mins followed by NADPH addition and measured after 20 mins by LC-MS analysis; assay type: ADME; conditions: liver microsomes, dose 2.5 µM, time 25 min, read-out: CLH
[7] = Metabolic stability in human liver microsome assessed as intrinsic clearance at […] preincubated for 5 mins followed by NADPH addition and measured after 20 mins by LC-MS analysis; assay type: ADME; conditions: liver microsomes, dose 2.5 µM, time 25 min, read-out: CLH
[8] = Solubility of the compound in FaSSIF at 1 mg/ml incubated for 24 hrs by LC-MS/MS analysis; assay type: physicochemical

Row | IC50 [1] [nM] | IC50 [2] [nM] | CLint scaled [3] [mL/min/kg] | CLint scaled at 10000 µM [4] [mL/min/kg] | Papp A→B at 2 h [5] [×10⁻⁶ cm/s] | CLint scaled at […] [6] [mL/min/kg] | CLint scaled at […] [7] [mL/min/kg] | solubility at 24 h [8] [µg/mL] | SMILES
1 | 17 | – | 35 | 15 | 10 | 41 | 14 | – | Cc1ccc2c(n1)CC1(CCN(c3cnc4nc(Sc5ccnc(N)c5Cl)ccc4n3)CC1)[C@@H]2N
2 | 58 | – | 8 | 2 | 10 | 30 | 3 | – | CC1(N)CCN(c2cnc3nc(Sc4ccnc(N)c4Cl)ccc3n2)CC1
3 | 1068 | 47 | – | – | – | – | – | – | CC1(N)CCN(c2cnc3nc(Sc4cccc(Cl)c4Cl)ccc3n2)CC1
4 | 17 | – | 33 | 10 | – | 25 | 6 | – | Cc1ccc2c(c1)[C@@H](N)C1(CCN(c3cnc4nc(Sc5ccnc(N)c5Cl)ccc4n3)CC1)C2
5 | 84 | 102 | 8 | 3 | 1 | 19 | 4 | – | Nc1nccc(Sc2ccc3nc(N4CCC[C@H](N)CC4)cnc3n2)c1Cl
6 | 142 | – | 31 | 8 | 1 | 10 | – | – | Nc1nccc(Sc2ccc3nc(N4CCC5(CC4)C[C@@H](O)C[C@H]5N)cnc3n2)c1Cl
7 | 660 | 355 | 7 | 2 | 12 | 20 | 6 | – | COc1nccc(Sc2ccc3nc(N4CCC(C)(N)CC4)cnc3n2)c1Cl
8 | 786 | 104 | 45 | 9 | – | 51 | 9 | – | COc1cccc(Sc2ccc3nc(N4CCC(C)(N)CC4)cnc3n2)c1Cl
9 | 68 | – | 16 | 2 | 10 | 14 | 5 | 909 (≈ 2190 µM) | CC1(CN)CCN(c2cnc3nc(Sc4ccnc(N)c4Cl)ccc3n2)CC1
10 | 991 | – | 12 | 7 | 9 | 23 | 9 | – | CC1(N)CCN(c2cnc3nc(Sc4cccc(C#N)c4Cl)ccc3n2)CC1
11 | 8 | – | 34 | 10 | 1 | 19 | 8 | 60 (≈ 122 µM) | Nc1nccc(Sc2ccc3nc(N4CCC5(CC4)Cc4ccccc4[C@H]5N)cnc3n2)c1Cl
12 | 202 | – | 16 | 5 | 12 | 20 | 3 | 1000 (≈ 2400 µM) | CNC1(C)CCN(c2cnc3nc(Sc4ccnc(N)c4Cl)ccc3n2)CC1

Second part, the compound before the results:

Row | SMILES | IC50 [1] [nM] | IC50 [2] [nM] | CLint scaled [3] [mL/min/kg] | CLint scaled at 10000 µM [4] [mL/min/kg] | Papp A→B at 2 h [5] [×10⁻⁶ cm/s] | CLint scaled at […] [6] [mL/min/kg] | CLint scaled at […] [7] [mL/min/kg] | solubility at 24 h [8] [µg/mL]
13 | CC1(N)CCN(c2cnc3c(cnn3-c3cccc(Cl)c3Cl)n2)CC1 | 1951 | 1930 | – | – | – | – | – | –
14 | COc1cnc2c(c1)[C@@H](N)C1(CCN(c3cnc4nc(Sc5ccnc(N)c5Cl)ccc4n3)CC1)C2 | 8 | – | 30 | 12 | 6 | 29 | 7 | –
15 | COc1ccc2c(c1)[C@@H](N)C1(CCN(c3cnc4nc(Sc5ccnc(N)c5Cl)ccc4n3)CC1)C2 | 29 | 47 | 33 | 11 | – | 21 | 6 | –
16 | CC1(N)CCN(c2cnc3c(Sc4cccc(Cl)c4Cl)cnn3c2)CC1 | > 20000 | 634 | – | – | – | – | – | –
17 | CC1(N)CCN(c2cnc3nc(Sc4cccn5nccc45)ccc3n2)CC1 | 1388 | – | – | – | 14 | – | – | –
18 | CC1(N)CCN(c2ccc(Sc3cccc(Cl)c3Cl)n3nccc23)CC1 | > 20000 | 3690 | – | – | – | – | – | –
19 | Nc1nccc(Sc2ccc3nc(N4CCC5(CC4)Cc4ncc(F)cc4[C@H]5N)cnc3n2)c1Cl | 6 | – | 26 | 12 | 9 | 47 | 13 | –
20 | Nc1nccc(Sc2ccc3nc(N4CCC5(CC4)Cc4cc(Cl)ccc4[C@H]5N)cnc3n2)c1Cl | 78 | 35 | – | – | – | – | – | 24 (≈ 45.8 µM)
21 | CC1(N)CCN(c2cnc3nc(-c4cccc5ccccc45)ccc3n2)CC1 | 510 | – | 8 | 2 | 13 | 22 | 3 | –
22 | CC1(N)CCN(c2ccnc3c(Sc4cccc(Cl)c4Cl)cnn23)CC1 | > 20000 | 530 | – | – | – | – | – | –
23 | Nc1nccc(Sc2ccc3nc(N4[C@H]5CC[C@H]4CC(N)C5)cnc3n2)c1Cl (stereo not given in full) | 28 | – | 17 | 2 | 3 | 18 | 3 | 1000 (≈ 2420 µM)
24 | CC1(N)CCN(c2ncc(Sc3cccc(Cl)c3Cl)n3nccc23)CC1 | 2785 | 208 | – | – | – | – | – | –
25 | CC1(N)CCN(c2cnc3cc(-c4cccc(Cl)c4Cl)ccc3n2)CC1 | > 20000 | – | – | – | – | – | – | –
26 | Nc1nccc(Sc2ccc3nc(N4CCC5(CC4)Cc4cc(F)ccc4[C@H]5N)cnc3n2)c1Cl | 10 | – | 37 | 12 | 6 | 17 | 5 | –
27 | CC1(N)CCN(c2cnc3nc(Oc4cccc(Cl)c4Cl)ccc3n2)CC1 | 767 | – | 10 | 2 | 11 | 18 | 4 | –
28 | CC1(N)CCN(c2cnc(-c3cccc(Cl)c3Cl)c(N)n2)CC1 | 254 | – | – | – | – | – | – | –
29 | Nc1nccc(Sc2ccc3nc(N4C[C@H]5C[C@@H](C4)[C@H]5N)cnc3n2)c1Cl | 227 | – | 23 | 5 | 14 | 28 | 4 | –
30 | CC1(N)CCN(c2cnc3nc(-c4cccc(F)c4Cl)ccc3n2)CC1 | 1184 | 344 | – | – | 19 | – | – | –
31 | CC1(N)CCN(c2cnc3nc(-c4cccc(Cl)c4Cl)ccc3n2)CC1 | 471 | – | 8 | 2 | – | 25 | 3 | –
